In US20210155644A1, “CYCLOPENTENYL PURINE DERIVATIVE OR SALT THEREOF” (Fujifilm Corporation, priority 2018, published 2021):
pEC50: −log10 of the molar value. Like-named read-outs stand apart in the source and are kept apart here.

Test system: adenovirus type 6 (ADV6)
Test: Evaluation of anti-adenovirus activity: CRL-11516 cells infected with ADV6, anti-hexon staining, count of stained cells
Assay type: cell-based
Experimental: A system in which CRL-11516 cells (available from ATCC) were infected with adenovirus type 6 (hereinafter, referred to as ADV6) was constructed, and a test for evaluating the anti-adenovirus activity of the compound according to the embodiment of the present invention and the compound of Comparative Example was carried out using the system. The test for evaluating the anti-adenovirus activity was carried out according to the method described below.
CRL-11516 cells were added to a 96-well plate at a cell density of 1×10^4 cells/well and cultured at 37° C. for 24 hours. After the culture was completed, the cell culture liquid was removed, and a serial dilution (100 μL) of the compound according to the embodiment of the present invention or the compound of Comparative Example was added. ADV6 (corresponding to 50TCID50) was added thereto, followed by culturing at 37° C. for 48 hours.
After the culture was completed, the infected cells were stained using Adeno-X Rapid Titer Kit (manufactured by Takara Bio Inc.). 100% methanol was added thereto and the cells were fixed at −20° C. for 10 minutes. The plate was washed three times with phosphate buffered saline (hereinafter, referred to as PBS) and then Mouse Anti-Hexon Antibody was added thereto, followed by incubation at 37° C. for 1 hour. After the incubation was completed, the plate was washed three times with PBS, and Rat Anti-Mouse Antibody was added thereto, followed by incubation at 37° C. for 1 hour. After the incubation was completed, a mixed staining solution of Stable Peroxidase Buffer:DAB Substrate=10:1 was added thereto, followed by incubation at room temperature for 10 minutes for staining of the cells.
The number of dark brown-stained cells was counted under a microscope, and the concentration of the test drug that reduces the dark brown-stained cells by 50% was defined as EC50. EC50 values were calculated for the triplicate test results, and a mean value and a standard deviation thereof were determined.

[1] = CRL-11516 cells infected with ADV6, 48 hours culture, concentration reducing dark brown-stained cells by 50%; read-out: Anti-AdV activity EC50
[2] = Human mastadenovirus C, 48 h, CRL-11516 cells infected with ADV6, 48 hours culture, concentration reducing dark brown-stained cells by 50%; read-out: Anti-AdV activity EC50
[3] = Human mastadenovirus C; CRL-11516 cells infected with ADV6, 48 hours culture, concentration reducing dark brown-stained cells by 50%; read-out: Anti-AdV activity EC50

Structure (SMILES)	pEC50 [1]	pEC50 [2]	also measured
COC(=O)[C@H](C)NP(=O)(OC[C@@H]1C=C[C@H](n2cnc3c(OC)nc(N)nc32)C1)Oc1ccccc1 (stereo partly drawn) [Example 2-2-16, Methyl ((((1S,4R)-4-(2-amino-6-methoxy-9H-purin-9-yl)cyclopent-2-en-1-yl)methoxy) (phenoxy)phosphoryl)-L-alaninate]	7.00 to 8.00	–	–
CC(C)OC(=O)[C@H](C)N[P@@](=O)(OC[C@@H]1C=C[C@H](n2cnc3c(OC4CCC4)nc(N)nc32)C1)Oc1ccccc1 [Example 2-2-35, isopropyl ((R)-(((1S,4R)-4-(2-amino-6-cyclobutoxy-9H-purin-9-yl)cyclopent-2-en-1-yl)methoxy)(phenoxy)phosphoryl)-L-alaninate]	–	7.00 to 8.00	–
COC(=O)[C@H](C)NP(=O)(OCCSC(=O)C(C)(C)C)OC[C@@H]1C=C[C@H](n2cnc3c(OC)nc(N)nc32)C1 (stereo partly drawn) [Example 4-6-1, ((((1S,4R)-4-(2-amino-6-methoxy-9H-purin-9-yl)cyclopent-2-en-1-yl)methoxy)(2-(pivaloylthio)ethoxy)phosphoryl)-L-alaninate]	> 8.00	–	–
COC(=O)[C@H](C)NP(=O)(OCCSC(=O)C(C)(C)C)OC[C@@H]1C=C[C@H](n2cnc3c(OC)nc(N)nc32)C1 (stereo partly drawn) [Example 1-2-12, methyl ((((1S,4R)-4-(2-amino-6-methoxy-9H-purin-9-yl)cyclopent-2-en-1-yl)methoxy)(2-(pivaloylthio)ethoxy)phosphoryl)-L-alaninate]	–	–	pEC50 [3]: > 8.00
COc1nc(N)nc2c1ncn2[C@H]1C=C[C@@H](COP(=O)(OCCSSCCOCc2ccccc2)OCCSSCCOCc2ccccc2)C1 [Example 1-2-8, ((1S,4R)-4-(2-amino-6-methoxy-9H-purin-9-yl)cyclopent-2-en-1-yl)methylbis(2-((2-(benzyloxy)ethyl)disulfanyl)ethyl)phosphate]	7.00 to 8.00	–	–
CCOc1nc(N)nc2c1ncn2[C@H]1C=C[C@@H](CO[P@@](=O)(N[C@@H](C)C(=O)OC(C)C)Oc2ccccc2)C1 [Example 2-2-18, Isopropyl ((S)-(((1S,4R)-4-(2-amino-6-ethoxy-9H-purin-9-yl)cyclopent-2-en-1-yl)methoxy) (phenoxy)phosphoryl)-L-alaninate]	–	6.00 to 7.00	–
COC(=O)[C@H](C)NP(=O)(OC[C@@H]1C=C[C@H](n2cnc3c(OC)nc(N)nc32)C1)Oc1ccc(Br)cc1 (stereo partly drawn) [Example 1-2-3, methyl ((((1S,4R)-4-(2-amino-6-methoxy-9H-purin-9-yl)cyclopent-2-en-1-yl)methoxy)(4-bromophenoxy)phosphoryl)-L-alaninate]	–	> 8.00	–
COC(=O)[C@H](C)NP(=O)(OC[C@@H]1C=C[C@H](n2cnc3c(NC4CC4)nc(N)nc32)C1)Oc1ccccc1 (stereo partly drawn) [Example 2-2-3, Methyl ((((1S,4R)-4-(2-amino-6-(cyclopropyl-amino)-9H-purin-9-yl)cyclopent-2-en-1-yl)methoxy) (phenoxy)phosphoryl)-L-alaninate]	–	7.00 to 8.00	–
COC(=O)[C@H](C)NP(=O)(OC[C@@H]1C=C[C@H](n2cnc3c(OC)nc(N)nc32)C1)Oc1ccc(Cl)cc1 (stereo partly drawn) [Example 1-2-2, methyl ((((1S,4R)-4-(2-amino-6-methoxy-9H-purin-9-yl)cyclopent-2-en-1-yl)methoxy)(4-chlorophenoxy)phosphoryl)-L-alaninate]	–	> 8.00	–
COc1nc(N)nc2c1ncn2[C@H]1C=C[C@@H](COP(=O)(N[C@@H](C)C(=O)OC(C)C)Oc2ccc(Cl)cc2)C1 (single isomer, unassigned) [Example 4-8-1]	7.00 to 8.00	–	–
COC(=O)[C@H](C)NP(=O)(OC[C@@H]1C=C[C@H](n2cnc3c(Cl)nc(N)nc32)C1)Oc1ccccc1 (stereo partly drawn) [Example 2-2-7, Methyl ((((1S,4R)-4-(2-amino-6-chloro-9H-purin-9-yl)cyclopent-2-en-1-yl)methoxy) (phenoxy)phosphoryl)-L-alaninate]	–	7.00 to 8.00	–
CC(C)OC(=O)[C@H](C)N[P@@](=O)(OC[C@@H]1C=C[C@H](n2cnc3c(N(C)C)nc(N)nc32)C1)Oc1ccccc1 [Example 2-2-25, isopropyl ((R)-(((1S,4R)-4-(2-amino-6-(dimethylamino)-9H-purin-9-yl)cyclopent-2-en-1-yl)methoxy)(phenoxy)phosphoryl)-L-alaninate]	–	7.00 to 8.00	–
Nc1nc2c(ncn2[C@H]2C=C[C@@H](CO)C2)c(=O)[nH]1 [Example 1]	–	–	pEC50 [3]: 5.00 to 6.00
COc1nc(N)nc2c1ncn2[C@H]1C=C[C@@H](COP(=O)(N[C@@H](C)C(=O)OC(C)C)OCCSC(=O)C(C)(C)C)C1 (stereo partly drawn) [Example 1-2-74, isopropyl ((((1S,4R)-4-(2-amino-6-methoxy-9H-purin-9-yl)cyclopent-2-en-1-yl)methoxy)(2-(pivaloylthio)ethoxy)phosphoryl)-L-alaninate]	–	–	pEC50 [3]: 7.00 to 8.00
CNc1nc(N)nc2c1ncn2[C@H]1C=C[C@@H](COP(=O)(N[C@@H](C)C(=O)OC)Oc2ccc(Br)cc2)C1 (stereo partly drawn) [Example 1-2-46, Methyl ((((1S,4R)-4-(2-amino-6-(methylamino)-9H-purin-9-yl)cyclopent-2-en-1-yl)methoxy)(4-bromophenoxy)phosphoryl)-L-alaninate]	–	> 8.00	–
CC(C)OC(=O)[C@H](C)NP(=O)(OC[C@@H]1C=C[C@H](n2cnc3c(Cl)nc(N)nc32)C1)Oc1ccccc1 (stereo partly drawn) [Example 4-3-1, Isopropyl ((((1 S,4R)-4-(2-amino-6-chloro-9H-purin-9-yl)cyclopent-2-en-1-yl)methoxy)(phenoxy)phosphoryl)-L-alaninate]	7.00 to 8.00	–	–
COC(=O)[C@H](C)NP(=O)(OC[C@@H]1C=C[C@H](n2cnc3c(Cl)nc(N)nc32)C1)Oc1ccc(Cl)cc1 (stereo partly drawn) [Example 4-5-2, methyl ((((1 S,4R)-4-(2-amino-6-chloro-9H-purin-9-yl)cyclopent-2-en-1-yl)methoxy)(4-chlorophenoxy)phosphoryl)-L-alaninate]	7.00 to 8.00	–	–
CNc1nc(N)nc2c1ncn2[C@H]1C=C[C@@H](CO[P@](=O)(N[C@@H](C)C(=O)OC(C)C)Oc2ccccc2)C1 [Example 2-2-29]	7.00 to 8.00	–	–
COc1nc(N)nc2c1ncn2[C@H]1C=C[C@@H](COP(=O)(N[C@@H](C)C(=O)OC(C)C)Oc2ccc(Cl)cc2)C1 (stereo partly drawn) [Example 1-2-72, isopropyl ((((1S,4R)-4-(2-amino-6-methoxy-9H-purin-9-yl)cyclopent-2-en-1-yl)methoxy)(4-chlorophenoxy)phosphoryl)-L-alaninate]	–	7.00 to 8.00	–
COc1nc(N)nc2c1ncn2[C@H]1C=C[C@@H](COP(=O)(OCCSC(=O)C(C)(C)C)Oc2ccccc2)C1 (stereo partly drawn) [Example 2-1, S-(2-(((((1S,4R)-4-(2-amino-6-methoxy-9H-purin-9-yl)cyclopent-2-en-1-yl)methoxy)(phenoxy)phosphoryl)oxy)ethyl) 2,2-dimethylpropanethioate]	–	–	pEC50 (read-out: Anti-AdV activity EC50; CRL-11516 cells infected with ADV6, 48 hours culture, concentration reducing dark brown-stained cells by 50%): > 8.00
COCCOc1cccc(OP(=O)(N[C@@H](C)C(=O)OC(C)C)OC[C@@H]2C=C[C@H](n3cnc4c(OC)nc(N)nc43)C2)c1 (stereo partly drawn) [Example 6-2-23, isopropyl ((((1S,4R)-4-(2-amino-6-methoxy-9H-purin-9-yl)cyclopent-2-en-1-yl)methoxy)(3-(2-methoxyethoxy)phenoxy)phosphoryl)-L-alaninate]	–	> 8.00	–
COC(=O)[C@H](C)NP(=O)(OC[C@@H]1C=C[C@H](n2cnc3c(OC)nc(N)nc32)C1)Oc1ccccc1 (stereo partly drawn) [Example 4-2-2, methyl ((((1 S,4R)-4-(2-amino-6-methoxy-9H-purin-9-yl)cyclopent-2-en-1-yl)methoxy)(phenoxy)phosphoryl)-L-alaninate]	7.00 to 8.00	–	–
COc1nc(N)nc2c1ncn2[C@H]1C=C[C@@H](COP(=O)(N[C@@H](C)C(=O)OC(C)C)Oc2ccc3c(c2)OCO3)C1 (stereo partly drawn) [Example 6-2-21, isopropyl ((((1S,4R)-4-(2-amino-6-methoxy-9H-purin-9-yl)cyclopent-2-en-1-yl)methoxy)(benzo[d][1,3]dioxolo-5-yloxy)phosphoryl)-L-alaninate]	7.00 to 8.00	–	–
CC(C)OC(=O)[C@H](C)NP(=O)(OCCSC(=O)C(C)(C)C)OC[C@@H]1C=C[C@H](n2cnc3c(Cl)nc(N)nc32)C1 (stereo partly drawn) [Example 1-2-73, isopropyl ((((1S,4R)-4-(2-amino-6-chloro-9H-purin-9-yl)cyclopent-2-en-1-yl)methoxy)(2-(pivaloylthio)ethoxy)phosphoryl)-L-alaninate]	–	–	pEC50 [3]: > 8.00
CCOc1nc(N)nc2c1ncn2[C@H]1C=C[C@@H](CO[P@](=O)(N[C@@H](C)C(=O)OC(C)C)Oc2ccccc2)C1 [Example 2-2-17, isopropyl ((R)-(((1S,4R)-4-(2-amino-6-ethoxy-9H-purin-9-yl)cyclopent-2-en-1-yl)methoxy)(phenoxy)phosphoryl)-L-alaninate]	–	> 8.00	–
